34 compounds from ChEMBL document CHEMBL4402510, “Caprazamycins: Promising lead structures acting on a novel antibacterial target MraY” (Eur J Med Chem, 2019) can be followed below.

SMILES strings stand for the structures. In brackets after ≈: the same amount, converted by molar mass.

One assay deals with Mycobacterium tuberculosis variant bovis. As to the kind of experiment: Antibacterial activity against Mycobacterium bovis Ravenel. It counts as functional.
The term MIC denotes the least concentration at which growth counts as inhibited. Low values mean greater potency, high ones weaker potency. Compound `CCCCCCCCCCCCCCCCCCNC(=O)C1=CCN(C)[C@@H]([C@H](O[C@@H]2O[C@H](CN)[C@@H](O)[C@H]2O)[C@H]2O[C@@H](n3ccc(=O)[nH]c3=O)[C@H](O)[C@@H]2O)C(=O)N1C` had a minimal inhibitory concentration (MIC) of 1.56 µg/mL (≈ 1.93 µM).

In turn, `CN1C(=O)[C@H]([C@H](O[C@@H]2O[C@H](CN)[C@@H](O)[C@H]2O)[C@H]2O[C@@H](n3ccc(=O)[nH]c3=O)[C@H](O)[C@@H]2O)N(C)CC=C1C(=O)Nc1ccc(C2CCCCC2)cc1` showed an MIC of 1.56 µg/mL (≈ 2.18 µM). The same measure, in the same setting: with `CCCCCCCCCCCCCCCCCNC(=O)C1=CCN(C)[C@@H]([C@H](O[C@@H]2O[C@H](CN)[C@@H](O)[C@H]2O)[C@H]2O[C@@H](n3ccc(=O)[nH]c3=O)[C@H](O)[C@@H]2O)C(=O)N1C` the figure was 1.56 µg/mL (≈ 1.96 µM); with `CCCCCCCCCCCCCCCCCCCCNC(=O)C1=CCN(C)[C@@H]([C@H](O[C@@H]2O[C@H](CN)[C@@H](O)[C@H]2O)[C@H]2O[C@@H](n3ccc(=O)[nH]c3=O)[C@H](O)[C@@H]2O)C(=O)N1C`, 0.78 µg/mL (≈ 0.932 µM); with `CCCCCCCNC(=O)C1=CCN(C)[C@@H]([C@H](O[C@@H]2O[C@H](CN)[C@@H](O)[C@H]2O)[C@H]2O[C@@H](n3ccc(=O)[nH]c3=O)[C@H](O)[C@@H]2O)C(=O)N1C`, 1.56 µg/mL (≈ 2.38 µM). The same measure, in the same setting: with `CCCCCCCCCCCCCCCNC(=O)C1=CCN(C)[C@@H]([C@H](O[C@@H]2O[C@H](CN)[C@@H](O)[C@H]2O)[C@H]2O[C@@H](n3ccc(=O)[nH]c3=O)[C@H](O)[C@@H]2O)C(=O)N1C` the figure was 1.56 µg/mL (≈ 2.03 µM). Same read-out and setting: with `CCCCCCCCCCCCCCCCCCOC(=O)C1=CCN(C)[C@@H]([C@H](O[C@@H]2O[C@H](CN)[C@@H](O)[C@H]2O)[C@H]2O[C@@H](n3ccc(=O)[nH]c3=O)[C@H](O)[C@@H]2O)C(=O)N1C` the figure was 3.13 µg/mL (≈ 3.86 µM); with `CCCCCCCC/C=C/CCCCCCCCNC(=O)C1=CCN(C)[C@@H]([C@H](O[C@@H]2O[C@H](CN)[C@@H](O)[C@H]2O)[C@H]2O[C@@H](n3ccc(=O)[nH]c3=O)[C@H](O)[C@@H]2O)C(=O)N1C`, 3.13 µg/mL (≈ 3.88 µM); with `CCCCCCNC(=O)C1=CCN(C)[C@@H]([C@H](O[C@@H]2O[C@H](CN)[C@@H](O)[C@H]2O)[C@H]2O[C@@H](n3ccc(=O)[nH]c3=O)[C@H](O)[C@@H]2O)C(=O)N1C`, 3.13 µg/mL (≈ 4.89 µM). `CCCCOc1ccc(NC(=O)C2=CCN(C)[C@@H]([C@H](O[C@@H]3O[C@H](CN)[C@@H](O)[C@H]3O)[C@H]3O[C@@H](n4ccc(=O)[nH]c4=O)[C@H](O)[C@@H]3O)C(=O)N2C)cc1` registered an MIC of 3.13 µg/mL (≈ 4.44 µM). `CCCCc1ccc(NC(=O)C2=CCN[C@@H]([C@H](O[C@@H]3O[C@H](CN)[C@@H](O)[C@H]3O)[C@H]3O[C@@H](n4ccc(=O)[nH]c4=O)[C@H](O)[C@@H]3O)C(=O)N2C)cc1`: inhibition of growth (MIC) required 3.13 µg/mL (≈ 4.64 µM). The compound `CCc1ccc(NC(=O)C2=CCN(C)[C@@H]([C@H](O[C@@H]3O[C@H](CN)[C@@H](O)[C@H]3O)[C@H]3O[C@@H](n4ccc(=O)[nH]c4=O)[C@H](O)[C@@H]3O)C(=O)N2C)cc1` gave an MIC of 1.56 µg/mL (≈ 2.36 µM).

Compound `CCCCCCCCCCCCCNC(=O)C1=CCN(C)[C@@H]([C@H](O[C@@H]2O[C@H](CN)[C@@H](O)[C@H]2O)[C@H]2O[C@@H](n3ccc(=O)[nH]c3=O)[C@H](O)[C@@H]2O)C(=O)N1C` returned an MIC of 1.56 µg/mL (≈ 2.11 µM). Still for that read-out and setting: with `CCCCCCCCCCCCCCCCCCCNC(=O)C1=CCN(C)[C@@H]([C@H](O[C@@H]2O[C@H](CN)[C@@H](O)[C@H]2O)[C@H]2O[C@@H](n3ccc(=O)[nH]c3=O)[C@H](O)[C@@H]2O)C(=O)N1C` the figure was 1.56 µg/mL (≈ 1.9 µM); with `CN1C(=O)[C@H]([C@H](O[C@@H]2O[C@H](CN)[C@@H](O)[C@H]2O)[C@H]2O[C@@H](n3ccc(=O)[nH]c3=O)[C@H](O)[C@@H]2O)N(C)CC=C1C(=O)NC1CCCCCCCCCCC1`, 1.56 µg/mL (≈ 2.16 µM); with `CC/C=C/CCCCCCCCCCOC(=O)C1=CCN(C)[C@@H]([C@H](O[C@@H]2O[C@H](CN)[C@@H](O)[C@H]2O)[C@H]2O[C@@H](n3ccc(=O)[nH]c3=O)[C@H](O)[C@@H]2O)C(=O)N1C`, 6.25 µg/mL (≈ 8.31 µM). In the case of `CCCCCCCc1ccc(NC(=O)C2=CCN(C)[C@@H]([C@H](O[C@@H]3O[C@H](CN)[C@@H](O)[C@H]3O)[C@H]3O[C@@H](n4ccc(=O)[nH]c4=O)[C@H](O)[C@@H]3O)C(=O)N2C)cc1`, the MIC came out at 0.78 µg/mL (≈ 1.07 µM). This MIC lies about 8-fold lower than the previous one.

As for `CCCCCCCCCNC(=O)C1=CCN(C)[C@@H]([C@H](O[C@@H]2O[C@H](CN)[C@@H](O)[C@H]2O)[C@H]2O[C@@H](n3ccc(=O)[nH]c3=O)[C@H](O)[C@@H]2O)C(=O)N1C`, it took 1.56 µg/mL (≈ 2.28 µM) to inhibit growth (MIC). Take `CCCCCCCCNC(=O)C1=CCN(C)[C@@H]([C@H](O[C@@H]2O[C@H](CN)[C@@H](O)[C@H]2O)[C@H]2O[C@@H](n3ccc(=O)[nH]c3=O)[C@H](O)[C@@H]2O)C(=O)N1C`: the MIC came to 1.56 µg/mL (≈ 2.33 µM). Still for that read-out and setting: with `CCCCCCc1ccc(NC(=O)C2=CCN(C)[C@@H]([C@H](O[C@@H]3O[C@H](CN)[C@@H](O)[C@H]3O)[C@H]3O[C@@H](n4ccc(=O)[nH]c4=O)[C@H](O)[C@@H]3O)C(=O)N2C)cc1` the figure was 0.2 µg/mL (≈ 0.279 µM); with `CCCCCCCCCCCCNC(=O)C1=CCN(C)[C@@H]([C@H](O[C@@H]2O[C@H](CN)[C@@H](O)[C@H]2O)[C@H]2O[C@@H](n3ccc(=O)[nH]c3=O)[C@H](O)[C@@H]2O)C(=O)N1C`, 1.56 µg/mL (≈ 2.15 µM); with `CCCCCNC(=O)C1=CCN(C)[C@@H]([C@H](O[C@@H]2O[C@H](CN)[C@@H](O)[C@H]2O)[C@H]2O[C@@H](n3ccc(=O)[nH]c3=O)[C@H](O)[C@@H]2O)C(=O)N1C`, 6.25 µg/mL (≈ 9.97 µM). `CCCCCCCCCCCCCCCCNC(=O)C1=CCN(C)[C@@H]([C@H](O[C@@H]2O[C@H](CN)[C@@H](O)[C@H]2O)[C@H]2O[C@@H](n3ccc(=O)[nH]c3=O)[C@H](O)[C@@H]2O)C(=O)N1C`: the minimal inhibitory concentration (MIC) amounted to 3.13 µg/mL (≈ 4.01 µM). The same measure, in the same setting: with `CCCCCCCCCCOC(=O)C1=CCN(C)[C@@H]([C@H](O[C@@H]2O[C@H](CN)[C@@H](O)[C@H]2O)[C@H]2O[C@@H](n3ccc(=O)[nH]c3=O)[C@H](O)[C@@H]2O)C(=O)N1C` the figure was 12.5 µg/mL (≈ 17.9 µM). Same read-out and setting: with `CCCCCCCCCCCCCCc1ccc(NC(=O)C2=CCN(C)[C@@H]([C@H](O[C@@H]3O[C@H](CN)[C@@H](O)[C@H]3O)[C@H]3O[C@@H](n4ccc(=O)[nH]c4=O)[C@H](O)[C@@H]3O)C(=O)N2C)cc1` the figure was 3.13 µg/mL (≈ 3.78 µM). On to `CCCCCCCCCCCCCCCCCCCCCNC(=O)C1=CCN(C)[C@@H]([C@H](O[C@@H]2O[C@H](CN)[C@@H](O)[C@H]2O)[C@H]2O[C@@H](n3ccc(=O)[nH]c3=O)[C@H](O)[C@@H]2O)C(=O)N1C`, for which the MIC was found to be 1.56 µg/mL (≈ 1.83 µM). The same measure, in the same setting: with `CCCCCCCCCCCCCCNC(=O)C1=CCN(C)[C@@H]([C@H](O[C@@H]2O[C@H](CN)[C@@H](O)[C@H]2O)[C@H]2O[C@@H](n3ccc(=O)[nH]c3=O)[C@H](O)[C@@H]2O)C(=O)N1C` the figure was 1.56 µg/mL (≈ 2.07 µM); with `CCCCCCCCCCCNC(=O)C1=CCN(C)[C@@H]([C@H](O[C@@H]2O[C@H](CN)[C@@H](O)[C@H]2O)[C@H]2O[C@@H](n3ccc(=O)[nH]c3=O)[C@H](O)[C@@H]2O)C(=O)N1C`, 1.56 µg/mL (≈ 2.19 µM). The same measure, in the same setting: with `CCCCCCCCCCNC(=O)C1=CCN(C)[C@@H]([C@H](O[C@@H]2O[C@H](CN)[C@@H](O)[C@H]2O)[C@H]2O[C@@H](n3ccc(=O)[nH]c3=O)[C@H](O)[C@@H]2O)C(=O)N1C` the figure was 1.56 µg/mL (≈ 2.24 µM); with `C=CCCCCCCCCCOC(=O)C1=CCN(C)[C@@H]([C@H](O[C@@H]2O[C@H](CN)[C@@H](O)[C@H]2O)[C@H]2O[C@@H](n3ccc(=O)[nH]c3=O)[C@H](O)[C@@H]2O)C(=O)N1C`, 12.5 µg/mL (≈ 17.6 µM); with `CCCCCCCCCCCCCOC(=O)C1=CCN(C)[C@@H]([C@H](O[C@@H]2O[C@H](CN)[C@@H](O)[C@H]2O)[C@H]2O[C@@H](n3ccc(=O)[nH]c3=O)[C@H](O)[C@@H]2O)C(=O)N1C`, 3.13 µg/mL (≈ 4.23 µM). Same read-out and setting: with `CCCCCCCOc1ccc(NC(=O)C2=CCN(C)[C@@H]([C@H](O[C@@H]3O[C@H](CN)[C@@H](O)[C@H]3O)[C@H]3O[C@@H](n4ccc(=O)[nH]c4=O)[C@H](O)[C@@H]3O)C(=O)N2C)cc1` the figure was 0.78 µg/mL (≈ 1.04 µM).

The test system is the same in a further assay. As to the kind of experiment: Antibacterial activity against Mycobacterium bovis. The format is functional.
For the compound `CO[C@@H]1[C@@H](OC)[C@H](C)O[C@@H](OC(=O)C[C@@H](C)CC(=O)O[C@@H](CCCCCCCCCCC(C)C)CC(=O)O[C@H]2CN(C)[C@@H]([C@H](O[C@@H]3O[C@H](CN)[C@@H](O)[C@H]3O)[C@H]3O[C@@H](n4ccc(=O)[nH]c4=O)[C@H](O)[C@@H]3O)C(=O)N(C)[C@@H]2C(=O)O)[C@@H]1OC`, the MIC was 3.13 µg/mL (≈ 2.73 µM).

A further assay shares this test system. As to the kind of experiment: Antibacterial activity against Mycobacterium bovis after 20 hrs by NCCLS-based two-fold broth dilution method. The format is functional.
Compound `CCCCc1ccc(NC(=O)C2=CCN(C)[C@@H]([C@H](O[C@@H]3O[C@H](CN)[C@@H](O)[C@H]3O)[C@H]3O[C@@H](n4ccc(=O)[nH]c4=O)[C@H](O)[C@@H]3O)C(=O)N2C)cc1` showed a minimum inhibitory concentration (MIC) of 3.13 µg/mL (≈ 4.54 µM).
